How the values were obtained:
Type in all cases: biochemical
[1] = target: hABHD6 (Homo sapiens (Human), UniProt Q9BV23); assay: Fluorescent assay for hABHD6 (AHMMCE substrate hydrolysis); details: membrane fraction containing full-length hABHD6, 20 μM AHMMCE; read-out: ABHD6 Inhibition IC50
Protocol: (§1) Certain compounds were tested for their ABHD6 and dual ABHD6/MGL inhibitory activity, which is expressed as % of inhibition or IC50 values in Table 1. The percentage of inhibition describes the percentage by which the inhibitor reduces the velocity/rate of 2-AG hydrolysis by ABHD6, and MGL or AEA hydrolysis by FAAH. […] The lower the IC50 values, the higher its inhibitory activity. A detailed description of the methods used to test inhibitory activity of compounds is given below.
Fluorescent Assays Protocol for hABHD6
Initial Fluorescent Inhibition Assay (3-Point)—
In each well of a 96-well plate 8 μL of membrane fraction containing full-length hABHD6 (1 μg total protein) was mixed with 168 μL of assay buffer (50 mM Tris-HCl, pH 7.6), and 20 μL of diluted compound (diluted in a dilution buffer consisting of 50% DMSO/50% assay buffer v/v). Each plate was incubated at RT for 15 minutes before adding 4 μL of 1 mM AHMMCE substrate (final concentration of 20 μM AHMMCE and final volume of 200 μL). The reaction was allowed to proceed for 1 hr at RT before the fluorescence was read at λex 360 nm and λem 460 nm and the inhibition calculated. Each experiment can test 8 compounds at three concentrations (usually 10 μM, 1 μM, and 100 nM).
IC50 Determination Assay (8-Point)—
A more detailed assay with an extended range tests compounds over 8 concentrations depending on the pre-determined approximate IC50 value from the initial screen. […] The assay was conducted in 96 well plate with each well containing the same reaction mixture detailed above in the 3-point screen. The relative fluorescence is quantified into coumarin produced by using a standard curve of HMMC in triplicate on each plate. Results are normalized to the negative control wells and the IC50 is determined using a non-linear regression curve fit in Prism, version 5 (GraphPad, San Diego, Calif.).

[2] = target: hMGL (Homo sapiens (Human), UniProt Q99685); assay: Fluorescent assay for hMGL (AHMMCE substrate hydrolysis); details: E. coli lysate containing hMGL, read-out: hMGL Inhibition IC50
Chain of hMGL (Q99685 whole entry): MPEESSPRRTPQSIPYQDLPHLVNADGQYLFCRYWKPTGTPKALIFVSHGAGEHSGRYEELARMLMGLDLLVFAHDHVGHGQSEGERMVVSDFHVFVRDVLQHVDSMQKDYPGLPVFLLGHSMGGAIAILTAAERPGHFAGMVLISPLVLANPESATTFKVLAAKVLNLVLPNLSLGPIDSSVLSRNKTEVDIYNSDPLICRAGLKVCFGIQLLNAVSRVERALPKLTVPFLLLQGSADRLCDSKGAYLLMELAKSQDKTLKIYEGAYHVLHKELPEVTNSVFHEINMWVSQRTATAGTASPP
Protocol: as §1
Preparation of Human MAGL (hMAGL)
Fluorescent Assay Protocol for hMGL
This medium throughput assay involved a 96-well plate format in which hMGL activity was monitored by the hydrolysis of the substrate […] (AHMMCE) to form the fluorescent product, coumarin. […] Upon the addition of AHMMCE, the reaction was incubated at 25° C. for 120 min; fluorescence readings were taken every 15 min at 360 nm/460 nm (λexcitation/λemission) using a Synergy HT Plate Reader (Bio-Tek, Winooski, Vt.). […] External standards were used to convert relative fluorescence units to the amount of 4-methylcoumarin formed. All MGL assays were performed in triplicate for each inhibitor concentration, and IC50 values were calculated using Prizm software (GraphPad Software, Inc., San Diego, Calif.).

[3] = target: Rat ΔTM FAAH (Rattus norvegicus (Rat), UniProt P97612); assay: Fluorescent assay for rat ΔTM FAAH (AAMCA substrate); details: ΔTM rFAAH, AAMCA 20 μM; read-out: rFAAH Inhibition IC50
Chain of Rat ΔTM FAAH (P97612 30-579): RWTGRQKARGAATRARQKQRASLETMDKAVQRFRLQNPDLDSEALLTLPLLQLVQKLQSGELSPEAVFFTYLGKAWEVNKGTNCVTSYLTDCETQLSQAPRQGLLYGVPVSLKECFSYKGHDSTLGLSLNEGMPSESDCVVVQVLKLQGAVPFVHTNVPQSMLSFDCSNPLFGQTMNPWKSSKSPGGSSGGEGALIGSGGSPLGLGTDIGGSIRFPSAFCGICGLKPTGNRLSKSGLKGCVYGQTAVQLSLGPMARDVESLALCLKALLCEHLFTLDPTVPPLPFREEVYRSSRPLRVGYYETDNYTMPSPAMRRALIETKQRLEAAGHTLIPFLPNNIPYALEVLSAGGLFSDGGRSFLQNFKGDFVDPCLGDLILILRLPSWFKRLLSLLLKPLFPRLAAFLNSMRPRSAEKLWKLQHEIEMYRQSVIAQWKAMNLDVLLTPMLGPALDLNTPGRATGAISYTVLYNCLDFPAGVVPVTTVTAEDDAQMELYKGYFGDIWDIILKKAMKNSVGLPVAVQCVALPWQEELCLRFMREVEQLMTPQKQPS
Protocol: (§2) Certain compounds were tested for their ABHD6 and dual ABHD6/MGL inhibitory activity, which is expressed as % of inhibition or IC50 values in Table 1. The percentage of inhibition describes the percentage by which the inhibitor reduces the velocity/rate of 2-AG hydrolysis by ABHD6, and MGL or AEA hydrolysis by FAAH. The IC50 is the concentration of the inhibitor, which results in 50% inhibition of the velocity/rate of 2-AG hydrolysis by ABHD6 or MGL. The IC50 is the concentration of the inhibitor, which results in 50% inhibition of the velocity/rate of AEA hydrolysis by FAAH. The lower the IC50 values, the higher its inhibitory activity. A detailed description of the methods used to test inhibitory activity of compounds is given below.
Example 79. Preparation of Transmembrane Domain-Deleted Rat FAAH (ΔTM rFAAH)
Rat ΔTM FAAH was expressed in E. coli cells and purified using the procedure disclosed by Patricelli et al. Biochemistry (1998) 37: 15177-15187.
Example 81. Fluorescent Assay Protocol for Rat ΔTM FAAH
(§3) The fluorescence reading at the 3 hour time point (linear enzyme kinetics) was used to calculate percent inhibition based on control assays without inhibitor present. All FAAH assays were performed in triplicate for each inhibitor concentration, and IC50 values determined using Prizm software (GraphPad Software, Inc.).

[4] = target: hFAAH (Homo sapiens (Human), UniProt O00519); assay: Fluorescent assay for hFAAH; details: MBP ΔTM hFAAH, procedure as for rFAAH; read-out: hFAAH Inhibition IC50
Chain of hFAAH (O00519 30-579): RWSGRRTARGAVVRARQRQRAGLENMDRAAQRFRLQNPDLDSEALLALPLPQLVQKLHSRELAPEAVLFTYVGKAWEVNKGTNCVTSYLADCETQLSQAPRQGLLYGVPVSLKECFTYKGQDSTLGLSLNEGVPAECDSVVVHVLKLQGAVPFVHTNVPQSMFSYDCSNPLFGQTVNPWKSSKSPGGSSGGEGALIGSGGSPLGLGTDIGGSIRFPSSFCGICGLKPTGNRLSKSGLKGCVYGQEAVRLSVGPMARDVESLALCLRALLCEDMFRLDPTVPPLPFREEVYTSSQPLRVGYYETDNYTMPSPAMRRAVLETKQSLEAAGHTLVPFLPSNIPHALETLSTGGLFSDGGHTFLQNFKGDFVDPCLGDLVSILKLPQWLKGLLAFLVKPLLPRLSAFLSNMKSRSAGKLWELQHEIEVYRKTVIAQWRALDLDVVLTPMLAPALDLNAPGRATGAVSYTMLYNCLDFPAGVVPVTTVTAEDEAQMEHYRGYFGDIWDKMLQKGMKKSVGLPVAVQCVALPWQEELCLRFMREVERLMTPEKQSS
Protocol: as §2
Example 80. Preparation of Human FAAH in Fusion with N-Terminal Maltose Binding Tag (MBP ΔTM hFAAH)
Human FAAH without putative transmembrane domain following maltose binding protein was expressed in E. coli cells using pMALcE4 vector Alapafuja et al J. Med. Chem. (2012) 55: 10074-89.
as §3
Example 82. Fluorescent Assay Protocol for hFAAH
Procedure was followed as described for rFAAH.

Chain of hABHD6 (Q9BV23 whole entry): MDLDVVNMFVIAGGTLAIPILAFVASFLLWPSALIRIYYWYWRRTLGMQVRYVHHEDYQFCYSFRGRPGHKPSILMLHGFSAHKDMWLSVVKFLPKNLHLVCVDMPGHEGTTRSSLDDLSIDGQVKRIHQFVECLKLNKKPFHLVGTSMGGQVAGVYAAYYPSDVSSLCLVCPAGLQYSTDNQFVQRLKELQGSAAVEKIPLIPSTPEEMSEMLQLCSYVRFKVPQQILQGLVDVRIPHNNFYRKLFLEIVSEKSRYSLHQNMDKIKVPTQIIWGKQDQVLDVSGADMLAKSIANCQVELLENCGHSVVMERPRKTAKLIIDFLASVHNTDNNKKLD

SMILES | IC50 [1] | IC50 [2] | IC50 [3] | IC50 [4]
O=C(OC(C(F)(F)F)C(F)(F)F)N1CCc2c(Br)cccc2C1 [Example 16, 1,1,1,3,3,3-Hexafluoropropan-2-yl 5-bromo-3,4-dihydroisoquinoline-2(1H)-carboxylate] | 10 to 100 nM | > 1000 nM | > 1000 nM | > 1000 nM
O=C(OC(C(F)(F)F)C(F)(F)F)N1CCc2ccc(Br)cc2C1 [Example 18, 1,1,1,3,3,3-Hexafluoropropan-2-yl 7-bromo-3,4-dihydroisoquinoline-2(1H)-carboxylate] | 100 to 1000 nM | > 1000 nM | > 1000 nM | > 1000 nM
CC1c2ccc(Br)cc2CN1C(=O)OC(C(F)(F)F)C(F)(F)F (stereo not drawn) [Example 15, 1,1,1,3,3,3-Hexafluoropropan-2-yl 5-bromo-1-methylisoindoline-2-carboxylate] | > 1000 nM | > 1000 nM | > 1000 nM | > 1000 nM
COc1ccc2c(c1)CN(C(=O)OC(C(F)(F)F)C(F)(F)F)C2 [Example 9, 1,1,1,3,3,3-Hexafluoropropan-2-yl 5-methoxyisoindoline-2-carboxylate] | 10 to 100 nM | > 1000 nM | > 1000 nM | > 1000 nM
O=C(OC(C(F)(F)F)C(F)(F)F)N1CCc2cccc(Br)c2C1 [Example 4, 1,1,1,3,3,3-Hexafluoropropan-2-yl 8-bromo-3,4-dihydroisoquinoline-2(1H)-carboxylate] | 10 to 100 nM | > 1000 nM | > 1000 nM | > 1000 nM
O=C(OC(C(F)(F)F)C(F)(F)F)N1Cc2cc(Br)cnc2C1 [Example 11, 1,1,1,3,3,3-Hexafluoropropan-2-yl 3-bromo-5,7-dihydro-6H-pyrrolo[3,4-b]pyridine-6-carboxylate] | 100 to 1000 nM | > 1000 nM | > 1000 nM | > 1000 nM
CCC1c2ccccc2CCN1C(=O)OC(C(F)(F)F)C(F)(F)F (racemic) [Example 7, 1,1,1,3,3,3-Hexafluoropropan-2-yl 1-ethyl-3,4-dihydroisoquinoline-2(1H)-carboxylate] | > 1000 nM | > 1000 nM | > 1000 nM | > 1000 nM
O=C(OC(C(F)(F)F)C(F)(F)F)N1CCc2cc(Br)ccc21 [Example 10, 1,1,1,3,3,3-Hexafluoropropan-2-yl 5-bromoindoline-1-carboxylate] | 100 to 1000 nM | > 1000 nM | > 1000 nM | > 1000 nM
CC1Cc2ccccc2CN1C(=O)OC(C(F)(F)F)C(F)(F)F (stereo not drawn) [Example 13, 1,1,1,3,3,3-Hexafluoropropan-2-yl 3-methyl-3,4-dihydroisoquinoline-2(1H)-carboxylate] | > 1000 nM | > 1000 nM | > 1000 nM | > 1000 nM
O=C(OC(C(F)(F)F)C(F)(F)F)N1Cc2cccc(Br)c2C1 [Example 12, 1,1,1,3,3,3-Hexafluoropropan-2-yl 4-bromoisoindoline-2-carboxylate] | 100 to 1000 nM | > 1000 nM | > 1000 nM | > 1000 nM
O=C(OC(C(F)(F)F)C(F)(F)F)N1CCc2ccccc2C1 [Example 1, 1,1,1,3,3,3-Hexafluoropropan-2-yl 3,4-dihydroisoquinoline-2(1H)-carboxylate] | 10 to 100 nM | > 1000 nM | > 1000 nM | > 1000 nM
COc1cccc2c1CN(C(=O)OC(C(F)(F)F)C(F)(F)F)C2 [Example 19, 1,1,1,3,3,3-Hexafluoropropan-2-yl 4-methoxyisoindoline-2-carboxylate] | 10 to 100 nM | > 1000 nM | > 1000 nM | > 1000 nM
CC1c2ccccc2CCN1C(=O)OC(C(F)(F)F)C(F)(F)F (racemic) [Example 6, 1,1,1,3,3,3-Hexafluoropropan-2-yl 1-methyl-3,4-dihydroisoquinoline-2(1H)-carboxylate] | > 1000 nM | > 1000 nM | > 1000 nM | > 1000 nM

Continued, values first:

IC50 [1] | IC50 [2] | IC50 [3] | IC50 [4] | SMILES
10 to 100 nM | > 1000 nM | > 1000 nM | > 1000 nM | O=C(OC(C(F)(F)F)C(F)(F)F)N1CC2(CC(Oc3cncc(F)c3)C2)C1 [Example 60, 1,1,1,3,3,3-Hexafluoropropan-2-yl 6-((5-fluoropyridin-3-yl)oxy)-2-azaspiro[3.3]heptane-2-carboxylate]
10 to 100 nM | 10 to 100 nM | > 1000 nM | > 1000 nM | O=C(OC(C(F)(F)F)C(F)(F)F)N1Cc2ccc(OCC(F)F)cc2C1 [Example 45, 1,1,1,3,3,3-Hexafluoropropan-2-yl 5-(2,2-difluoroethoxy)isoindoline-2-carboxylate]
10 to 100 nM | > 1000 nM | > 1000 nM | > 1000 nM | COc1ccc(-c2ccc3c(c2)CN(C(=O)OC(C(F)(F)F)C(F)(F)F)C3)cc1F [Example 26, 1,1,1,3,3,3-Hexafluoropropan-2-yl 5-(3-fluoro-4-methoxyphenyl)isoindoline-2-carboxylate]
10 to 100 nM | 10 to 100 nM | > 1000 nM | > 1000 nM | O=C(OC(C(F)(F)F)C(F)(F)F)N1CC2(CC(Oc3cccc(F)c3)C2)C1 [Example 53, 1,1,1,3,3,3-Hexafluoropropan-2-yl-6-(3-fluorophenoxy)-2-azaspiro[3.3]heptane-2-carboxylate]
10 to 100 nM | > 1000 nM | > 1000 nM | > 1000 nM | CC1(C)C2C(=O)N(OC(=O)N3CC4(CCC(Oc5cncc(F)c5)C4)C3)C(=O)C21 (stereo not drawn) [Example 64, 6,6-Dimethyl-2,4-dioxo-3-azabicyclo[3.1.0]hexan-3-yl 6-((5-fluoropyridin-3-yl)oxy)-2-azaspiro[3.4]octane-2-carboxylate]
10 to 100 nM | 10 to 100 nM | 10 to 100 nM | > 1000 nM | O=C(OC(C(F)(F)F)C(F)(F)F)N1CC[C@]2(C1)C[C@@H](OC(c1ccc(F)cc1)c1ccc(F)cc1)C2 [Example 67, 1,1,1,3,3,3-Hexafluoropropan-2-yl (2r,4s)-2-(bis(4-fluorophenyl)methoxy)-6-azaspiro[3.4]octane-6-carboxylate]
> 1000 nM | > 1000 nM | > 1000 nM | > 1000 nM | O=C(OC(C(F)(F)F)C(F)(F)F)N1CCc2cccc(-c3ccccc3)c2C1 [Example 27, 1,1,1,3,3,3-Hexafluoropropan-2-yl 8-phenyl-3,4-dihydroisoquinoline-2(1H)-carboxylate]
> 1000 nM | 10 to 100 nM | 10 to 100 nM | > 1000 nM | O=C(OC(C(F)(F)F)C(F)(F)F)N1CC[C@]2(C1)C[C@H](OC(c1ccc(F)cc1)c1ccc(F)cc1)C2 [Example 68, 1,1,1,3,3,3-Hexafluoropropan-2-yl (2s,4r)-2-(bis(4-fluorophenyl)methoxy)-6-azaspiro[3.4]octane-6-carboxylate]

— patent publication US10662159B2, “ABHD6 and dual ABHD6/MGL inhibitors and their uses” (MAKScientific, LLC, priority 2017, dated 2020)
